According to patent US20240116985A1, “STAPLED PEPTIDES AND METHODS THEREOF” (priority 2020, published 2024):
In brackets after ≈: the same amount, converted by molar mass. Like-named read-outs stand apart in the source and are kept apart here.

Tests used:
[1] = target: T1, full-length beta-Catenin (Uniprot ID P35222) (Homo sapiens, UniProt P35222); test: Fluorescence polarization IC50 (beta-catenin / 5FAM-TCF4 10-53 competition); type: binding
T1 construct: 10 nM full-length beta-Catenin (Uniprot ID P35222)
T1 sequence (P35222 1-781): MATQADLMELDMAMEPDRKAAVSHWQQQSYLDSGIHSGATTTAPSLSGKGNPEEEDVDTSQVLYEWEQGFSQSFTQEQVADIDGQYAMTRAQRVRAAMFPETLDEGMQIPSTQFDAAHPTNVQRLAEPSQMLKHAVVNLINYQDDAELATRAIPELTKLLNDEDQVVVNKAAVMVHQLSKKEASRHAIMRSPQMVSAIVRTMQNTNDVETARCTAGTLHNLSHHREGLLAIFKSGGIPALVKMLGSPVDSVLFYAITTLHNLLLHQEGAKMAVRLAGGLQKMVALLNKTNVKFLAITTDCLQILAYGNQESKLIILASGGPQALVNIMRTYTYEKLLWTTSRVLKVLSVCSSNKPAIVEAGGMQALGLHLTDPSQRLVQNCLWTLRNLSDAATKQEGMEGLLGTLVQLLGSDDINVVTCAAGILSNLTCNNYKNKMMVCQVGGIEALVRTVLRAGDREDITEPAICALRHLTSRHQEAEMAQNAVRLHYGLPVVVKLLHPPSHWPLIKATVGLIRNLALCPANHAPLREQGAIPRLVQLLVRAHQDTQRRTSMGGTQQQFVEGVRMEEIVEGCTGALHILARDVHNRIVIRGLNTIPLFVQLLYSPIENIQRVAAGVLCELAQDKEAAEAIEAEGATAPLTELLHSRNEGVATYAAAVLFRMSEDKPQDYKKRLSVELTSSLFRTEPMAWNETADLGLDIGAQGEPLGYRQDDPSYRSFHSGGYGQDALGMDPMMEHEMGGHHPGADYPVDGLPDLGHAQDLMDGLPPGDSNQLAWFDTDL

CHI Log D procedure = type: physicochemical; settings: for chromatographic logD: pH 7.4, CHI Log D; for CHI Log D: pH 7.4
Solubility in PBS = type: physicochemical
Procedure, shortened: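 Steps: ultracentrifuge the peptide PBS solution, inject the supernatant on HPLC, inject a 50 μM peptide DMSO solution as reference, then calculate solubility as area ratio (PBS/DMSO) × 50 uM.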

[2] = target: T2, beta-catenin/TCF4 engagement (Homo sapiens, UniProt P35222); test: Nano-BRET target engagement assay (B-cat-Halo & TCF4-Luc in HEK293 cells); type: cell-based; settings: for IC50: read-out: NanoBRET Abs IC50; for inhibition at 10 µM: read-out: NanoBRET % inh @ 10 uM
T2 construct: expressed in transfected cells; host or cells: HEK293
T2 sequence (P35222 1-781): T1 sequence (P35222 1-781)

[3] = fluorescence polarization, read-out: beta-Catenin FP IC50
[4] = fluorescence polarization, beta-catenin, read-out: FP EC50

Compound | IC50 [1, 3] [µM] | chromatographic logD (CHI Log D procedure) | Solubility (Solubility in PBS; Solubility (uM)) [µM] | IC50 ([2]; absolute IC50) [µM] | IC50 ([1]; read-out: beta-Catenin FP IC50) [µM] | IC50 [2] [µM] | Solubility (Solubility in PBS) [µM] | IC50 ([1]; read-out: FP EC50) [µM] | CHI Log D (CHI Log D procedure) | IC50 [1, 4] [µM] | inhibition at 10 µM ([2]; HEK293, @ 10 uM) [%] | inhibition at 10 µM ([2]; HEK293, 10 uM) [%]
CC[C@H](C)[C@@H]1NC(=O)[C@H](CC(=O)O)NC(=O)[C@]2(CC=CCCCC3(CCCC=CCCCCCC[C@@](C)(C(=O)N[C@@H](Cc4ccccc4)C(=O)N[C@@H](Cc4csc5ccccc45)C(=O)N[C@@H](CCC(N)=O)C(N)=O)NC(=O)[C@H](CC(N)=O)NC(=O)[C@H](Cc4ccccc4)NC(=O)[C@H](C)NC(=O)[C@H](C)NC(=O)[C@H](CCC(=O)O)NC(=O)[C@H](CC(=O)O)NC3=O)NC1=O)CCCN2C(C)=O (stereo partly drawn) [I-557, Ac-PL3-Asp-Ile-B5-Asp-Glu-Ala-Ala-Phe-Asn-S8-Phe-BztA-Gln-NH2] | 0.035 | 2.39 | 47 (≈ 87.9 µg/mL) | 16.9 |  |  |  |  |  |  |  | 
CC(=O)N1CCC[C@]12CC=CCCCC1(CCCC=CCCCOC(=O)N3CC[C@@](C(=O)N[C@@H](Cc4ccsc4)C(=O)N[C@@H](Cc4csc5ccccc45)C(=O)N[C@@H](Cc4c[nH]cn4)C(N)=O)(C3)NC(=O)[C@H](CC(N)=O)NC(=O)[C@H](Cc3ccccc3)NC(=O)[C@H](C)NC(=O)[C@H](C)NC(=O)[C@H](CC(=O)O)NC(=O)[C@H](CC(=O)O)NC1=O)NC(=O)[C@H](CCC(C)C)NC(=O)[C@H](CC(=O)O)NC2=O (stereo partly drawn) [I-788, Ac-PL3-Asp-hLeu-B5-Asp-Asp-Ala-Ala-Phe-Asn-PyrS2-3Thi-BztA-His-NH2] |  | 2.17 | 31 (≈ 59.7 µg/mL) |  | 0.005 | 21.6 |  |  |  |  |  | 
CC(=O)N1CCC[C@]12CC=CCCCC1(CCCC=CCCCOC(=O)N3CC[C@@](C(=O)N[C@@H](Cc4ccccc4Cl)C(=O)N[C@@H](Cc4csc5ccccc45)C(=O)N[C@@H](CCC(N)=O)C(=O)NCCCCCCN)(C3)NC(=O)[C@H](Cc3ccccc3)NC(=O)[C@H](Cc3ccccc3)NC(=O)[C@H](C)NC(=O)[C@H](C)NC(=O)[C@H](CN(CC(=O)O)CC(F)(F)F)NC(=O)[C@H](CC(=O)O)NC1=O)NC(=O)[C@H](CC(C)(C)C)NC(=O)[C@H](CC(=O)O)NC2=O (stereo partly drawn) [I-1012, Ac-PL3-Asp-Npg-B5-Asp-TfeGA-Ala-Ala-Phe-Phe-PyrS2-2C1F-BztA-Gln-6AmHex] |  | 2.61 |  |  | 0.06 | 37.9 | 10 (≈ 21.9 µg/mL) |  |  |  |  | 
CC[C@H](C)[C@@H]1NC(=O)[C@H](CC(=O)O)NC(=O)[C@]2(CC=CCCCC3(CCCC=CCCCCCC[C@@](C)(C(=O)N[C@@H](Cc4ccsc4)C(=O)N[C@@H](Cc4csc5ccccc45)C(=O)N[C@@H](CCC(N)=O)C(N)=O)NC(=O)[C@H](CC(N)=O)NC(=O)[C@H](Cc4ccccc4)NC(=O)[C@H](C)NC(=O)[C@H](C)NC(=O)[C@H](CCC(=O)O)NC(=O)[C@H](CC(=O)O)NC3=O)NC1=O)CCCN2C(C)=O (stereo partly drawn) [I-521, Ac-PL3-Asp-Ile-B5-Asp-Glu-Ala-Ala-Phe-Asn-S8-3Thi-BztA-Gln-NH2] | 0.023 |  |  | 15.4 |  |  | 50 (≈ 93.8 µg/mL) | 0.023 | 2.351 |  |  | 
CC(=O)N1CCC[C@]12CC=CCCCC1(CCCC=CCCCOC(=O)N3CC[C@@](C(=O)N[C@@H](Cc4ccsc4)C(=O)N[C@@H](Cc4csc5ccccc45)C(=O)N[C@@H](CC(N)=O)C(N)=O)(C3)NC(=O)[C@H](CC(N)=O)NC(=O)[C@H](Cc3ccccc3)NC(=O)[C@H](C)NC(=O)[C@H](C)NC(=O)[C@H](CC(=O)O)NC(=O)[C@H](CC(=O)O)NC1=O)NC(=O)[C@H](CC(C)(C)C)NC(=O)[C@H](CC(=O)O)NC2=O (stereo partly drawn) [I-816, Ac-PL3-Asp-Npg-B5-Asp-Asp-Ala-Ala-Phe-Asn-PyrS2-3Thi-BztA-Asn-NH2] |  | 2.05 | 46 (≈ 87.6 µg/mL) |  | 0.005 | 13.7 |  |  |  |  |  | 
CC(=O)N1CCC[C@]12CC=CCCCC1(CCCC=CCCCCCC[C@@](C)(C(=O)N[C@@H](Cc3ccsc3)C(=O)N[C@@H](Cc3csc4ccccc34)C(=O)N[C@@H](CCC(N)=O)C(N)=O)NC(=O)[C@H](CC(N)=O)NC(=O)[C@H](Cc3ccccc3)NC(=O)[C@H](C)NC(=O)[C@H](C)NC(=O)[C@H](CC(=O)O)NC(=O)[C@H](CC(=O)O)NC1=O)NC(=O)[C@H](CC(C)(C)C)NC(=O)[C@H](CC(=O)O)NC2=O (stereo partly drawn) [I-679, Ac-PL3-Asp-Npg-B5-Asp-Asp-Ala-Ala-Phe-Asn-S8-3Thi-BztA-Gln-NH2] | 0.007 |  |  | 17.1 |  |  | 48 (≈ 90 µg/mL) | 0.007 | 2.382 |  | 44.8 | 
CC(=O)N1CCC[C@]12CC=CCCCC1(CCCC=CCCCCOC(=O)N3CC[C@@](C(=O)N[C@@H](Cc4ccsc4)C(=O)N[C@@H](Cc4csc5ccccc45)C(=O)N[C@@H](CC(N)=O)C(=O)N[C@H](C)C(N)=O)(C3)NC(=O)[C@H](CC(N)=O)NC(=O)[C@H](Cc3ccccc3)NC(=O)[C@H](C)NC(=O)[C@H](C)NC(=O)[C@H](CC(=O)O)NC(=O)[C@H](CC(=O)O)NC1=O)NC(=O)[C@H](CC(C)(C)C)NC(=O)[C@H](CC(=O)O)NC2=O (stereo partly drawn) [I-835, Ac-PL3-Asp-Npg-B5-Asp-Asp-Ala-Ala-Phe-Asn-PyrS3-3Thi-BztA-Asn-dAla-NH2] |  |  |  |  | 0.011 | 37.6 | 50 (≈ 99.5 µg/mL) |  | 2.109 | 0.011 |  | 27.6

Results, then the compound that gave them:

IC50 [1, 3] [µM] | chromatographic logD (CHI Log D procedure) | Solubility (Solubility in PBS; Solubility (uM)) [µM] | IC50 ([2]; absolute IC50) [µM] | IC50 ([1]; read-out: beta-Catenin FP IC50) [µM] | IC50 [2] [µM] | Solubility (Solubility in PBS) [µM] | IC50 ([1]; read-out: FP EC50) [µM] | CHI Log D (CHI Log D procedure) | IC50 [1, 4] [µM] | inhibition at 10 µM ([2]; HEK293, @ 10 uM) [%] | inhibition at 10 µM ([2]; HEK293, 10 uM) [%] | Compound
 | 3.17 | 28 (≈ 52.2 µg/mL) |  | 0.026 | 7.7 |  |  |  |  |  |  | CC(=O)N1CCC[C@]12CC=CCCCC1(CCCC=CCCCCCC[C@@](C)(C(=O)N[C@@H](Cc3ccccc3Cl)C(=O)N[C@@H](Cc3csc4ccccc34)C(=O)N[C@@H](C(N)=O)[C@H](C)O)NC(=O)[C@H]([C@@H](C)O)NC(=O)[C@H](Cc3ccccc3)NC(=O)[C@H](C)NC(=O)[C@H](C)NC(=O)[C@H](CC(=O)O)NC(=O)[C@H](CC(=O)O)NC1=O)NC(=O)[C@H](CC(C)(C)C)NC(=O)[C@H](CC(=O)O)NC2=O (stereo partly drawn) [I-1092, Ac-PL3-Asp-Npg-B5-Asp-Asp-Ala-Ala-Phe-Thr-S8-2C1F-BztA-dThr-NH2]
 | 2.46 | 12 (≈ 24.2 µg/mL) |  | 0.064 | 28.5 |  |  |  |  |  |  | CC(=O)N1CCC[C@]12CC=CCCCC1(CCCC=CCCCOC(=O)N3CC[C@@](C(=O)N[C@@H](Cc4ccccc4Cl)C(=O)N[C@@H](Cc4csc5ccccc45)C(=O)N[C@@H](CCC(N)=O)C(N)=O)(C3)NC(=O)[C@H](CC(C)C)NC(=O)[C@H](Cc3ccc(C(F)(F)F)cc3)NC(=O)[C@H](C)NC(=O)[C@H](C)NC(=O)[C@H](CC(=O)O)NC(=O)[C@H](CC(=O)O)NC1=O)NC(=O)[C@H](CC(C)(C)C)NC(=O)[C@H](CC(=O)O)NC2=O (stereo partly drawn) [I-1123, Ac-PL3-Asp-Npg-B5-Asp-Asp-Ala-Ala-4F3MeF-Leu-PyrS2-2C1F-BztA-Gln-NH2]
 |  |  |  | 0.022 | 6.3 | 44 (≈ 83.8 µg/mL) |  | 2.8 | 0.022 |  |  | CC(=O)N1CCC[C@]12CC=CCCCC1(CCCC=CCCCCCC[C@@](C)(C(=O)N[C@@H](Cc3ccccc3Cl)C(=O)N[C@@H](Cc3csc4ccccc34)C(=O)N[C@@H](CCC(N)=O)C(N)=O)NC(=O)[C@H]([C@@H](C)O)NC(=O)[C@H](Cc3ccccc3)NC(=O)[C@H](C)NC(=O)[C@H](C)NC(=O)[C@H](CCC(=O)O)NC(=O)[C@H](CC(=O)O)NC1=O)NC(=O)[C@H](CC(C)(C)C)NC(=O)[C@H](CC(=O)O)NC2=O (stereo partly drawn) [I-1088, Ac-PL3-Asp-Npg-B5-Asp-Glu-Ala-Ala-Phe-Thr-S8-2ClF-BztA-Gln-NH2]
